Reference: a melting point compilation (Tetko et al.; mined from patent text by program, amines drawn as free bases though some values may be those of a salt)

SMILES	melting point
O=c1nc(-c2cccc(Cl)c2)c2cc(C3(c4ccc(Cl)cc4)OCCO3)ccc2[nH]1	220 °C
CN(C)c1ccc2nc(-c3c[nH]c4ccccc34)[nH]c(=O)c2c1	> 300 °C
FC(F)(c1ccccc1)C(F)(F)c1ccccc1Br	54 to 55 °C
CCCCCCCCCCCCCCCCCCN(C)S(=O)(=O)c1cc(C(=O)OC)c([N+](=O)[O-])c(C(=O)OC)c1	70 to 72 °C
CCC(CC)Oc1cc(C)nc2c1nc(N)n2-c1c(C)cc(C)cc1C	159 to 161 °C
CNC(=O)/C=C/c1cccc(Br)c1	147 to 148 °C
CC(C)(C)c1cc(CCC(=O)Nc2ccc(S(=O)(=O)NCCBr)cc2)cc(C(C)(C)C)c1O	153 to 155 °C
CC(C)C(=O)N[C@@H](CSC(=O)c1ccccc1)C(=O)NCCSC(=O)c1ccccc1	154 to 156 °C
Cc1nc(N2CCN(C(=O)c3ccco3)CC2)nnc1-c1ccccc1	142 °C
FC(F)(F)c1ccc(COc2ccnc(CCl)c2)cc1	133 to 135 °C
COc1ccc2c(c1)S(=O)(=O)N=CN2CCF	123 to 128 °C
C=CCOc1ccc(-c2nc3n(c2-c2ccc(OCC=C)cc2)CCS3)cc1	135 to 138 °C
CCCCCCCCCCC[C@@H](C[C@@H]1OC(=O)[C@H]1CCCCCC)OC(=O)[C@H](CC(C)C)NC=O	44 to 45 °C
O=c1oc(=O)n(-c2ccc(F)cc2)c2ccccc12	199 to 201 °C
CN1C(=O)c2cccnc2Nc2cc(C(F)(F)F)ccc21	169 to 172 °C
COc1ccc(-c2c(C(C)=O)c(CBr)nc3cc(OC)c(OC)cc23)cc1OC	181 to 182 °C
FC(F)(c1ccccc1)C(F)(F)c1ccc(Br)cc1	80 to 82 °C
Cn1nnnc1SCC1NCCc2cc(OCc3ccccc3)c(OCc3ccccc3)cc21 (stereo not drawn)	106 to 108 °C
COc1ccc(-c2ccc(OC3SCC(OC(C)=O)C(OC(C)=O)C3OC(C)=O)cn2)cn1 (stereo not drawn)	74 °C

SMILES	melting point
CCCNC(=O)NCC1CCCCC1	60 to 61 °C
Cc1cccc(CC(=O)c2ccnc(-c3ccc(C(=O)NC4CCOCC4)cc3)c2)n1	210 °C
CC(C)C(S)C(=O)NC1(C(=O)NC(Cc2ccc(-c3ccccc3)cc2)C(=O)O)CCOCC1 (stereo not drawn)	161 to 163 °C
CC(=O)c1sc(=O)[nH]c1C	208 to 211 °C
Clc1ccc(N2CCN(Cc3cn4cc(Cl)ccc4n3)CC2)cc1	145 to 146 °C
CC1=C(C(=O)OCC=Cc2ccccc2)C(c2ccccc2C(F)(F)F)c2c(ccnc2OC(C)C)N1 (stereo not drawn)	164 to 166 °C
COc1ccc(-c2ccc3c(c2)c2ccc(C=Cc4ccccc4)nc2n3S(=O)(=O)c2ccccc2)cc1	193 to 195 °C
O=C(O)c1cccc(-c2cccc3c2OC(Cc2cccc(C(F)(F)F)c2)C3)c1 (stereo not drawn)	156 to 157 °C
O=C(CCn1ccnc1)c1c[nH]c2ccccc12	194 to 197 °C
Cc1ccc(O)c(C(C)(O)c2ccccc2)c1 (stereo not drawn)	100 °C
CCOC(=O)CSC1=C(C=O)CCc2c(C(=O)OCC)sc(SC)c21	102 to 103 °C
CC(C)(C)OC(=O)NCCCCCCCCNC(=O)OC(C)(C)C	96 to 97 °C
COc1ccc(C(C)=O)c2c1CCN2C(C)=O	88 to 89 °C
O=C(O)CCOc1cccc(CN2CCCCC2)c1	178 to 180 °C
COc1ccc(CN(CC(=O)O)c2nc(NC(=O)Nc3ccccc3OC)nc(Nc3ccccc3-c3ccccc3)n2)cc1	147 to 149 °C
Cc1noc(-c2cnc(NC(=O)[C@H](CC3CCCC3)c3ccc(S(C)(=O)=O)c(Cl)c3)cn2)n1	101 to 105 °C
CCCCOc1ccc(S(=O)(=O)C2(C(=O)O)CCN(Cc3ccc(OCCN4CCCCC4)cc3)CC2)cc1	98 °C
CCN(CC)C(=O)c1cc(OC)cc(Oc2cccc(C(F)(F)F)c2)n1	78 to 89 °C
CC(=O)C1CCC2C3CCC4=CC(=O)C=CC4(C)C3CCC12CO[N+](=O)[O-] (stereo not drawn)	148 to 150 °C
